Reference: US5700779A (Cortech, Inc., priority 1996, dated 1997)
Values joined by “and” are separate entries in the source; they are usually repeats but may differ in a detail not shown here. Identical values can stand only once.

What was measured:
[1] = target: T1, bradykinin type 2 (BK2) receptors (Rattus norvegicus, UniProt P25023); test: standard rat uterus pA2 assay (in vitro B2 antagonist activity); conditions: for % Recovery: recovery of agonist response after washing 40 minutes following highest antagonist concentration; for activity in rat uterus functional tissue assay: summary of Table 1; for B2 pA2 (Rat Uterus): antagonist preincubated for 15 minutes
T1 construct: Uterine horns were removed, placed under a 1 g resting tension in 4 mL tissue baths; from tissue; host or cells: rat uterine horns (Sprague-Dawley, stilbesterol-pretreated)
T1 sequence (P25023 1-396): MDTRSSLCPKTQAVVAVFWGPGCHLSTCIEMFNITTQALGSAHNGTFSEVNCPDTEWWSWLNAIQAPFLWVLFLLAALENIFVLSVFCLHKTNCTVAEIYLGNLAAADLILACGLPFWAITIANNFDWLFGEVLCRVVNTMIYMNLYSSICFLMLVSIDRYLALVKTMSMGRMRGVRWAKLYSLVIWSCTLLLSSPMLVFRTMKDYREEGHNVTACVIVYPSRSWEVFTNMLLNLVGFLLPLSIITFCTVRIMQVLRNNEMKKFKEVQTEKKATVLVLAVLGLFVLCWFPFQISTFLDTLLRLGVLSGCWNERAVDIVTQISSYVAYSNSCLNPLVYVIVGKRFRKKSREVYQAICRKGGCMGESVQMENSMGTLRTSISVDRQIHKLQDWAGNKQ
Method: The standard rat uterus pA2 assay was conducted as follows:
Female Sprague-Dawley rats (200-250 g) were pretreated with stilbesterol (100 μg/kg) and killed 18 hours later by a blow on the head and exsanguinated. Uterine horns were removed, placed under a 1 g resting tension in 4 mL tissue baths containing De Jalon's solution at 31° C. and aerated. […] Antagonist potency was calculated according to the method of Arunlakshana and Schild (Arunlakshana, O., Schild, H. O., Br. J. Pharmacology 14 48-58 (1959)). […] The difference in pD2 values compared to concurrent control reflected the "percentage recovery" of agonist response.

response to Bradykinin [2] = test: duration of action of subcutaneous CP-0597, rat blood pressure; format: in vivo; conditions: for inhibition of responses to Bradykinin, duration of action (s.c.): rat
Method: (§1) Male Sprague-Dawley rats were anesthetized with pentobarbital and femoral arteries were cannulated for the recording of blood pressure. Both femoral veins in each animal were cannulated for the administration of test compounds. […] Following an equilibration period the specific experimental procedure was started.
Animals were then given subcutaneous injections of CP-0597 (1 and 3 mg/kg s.c.). […] At 1 mg/kg s.c. the responses were still 100% inhibited at 3 hours post injection. At 3 mg/kg s.c. the responses were still 100% inhibited at 5 hours post injection.

[3] = test system: blood pressure responses to vasoactive agents; test: selectivity of subcutaneous CP-0597, rat blood pressure; format: in vivo; conditions: 1.0 mg/kg s.c., thirty minutes after injection
Method: as §1
Animals were then treated with CP-0597 (1.0 mg/kg s.c.). Thirty minutes after the s.c. injection each vasoactive agent was retested and compared to pre-antagonist responses.

response to Bradykinin [4] = test: duration of action of intravenously infused CP-0597, rabbit blood pressure; format: in vivo; conditions: one hour (60 min) after 0.1 μg/kg/min infusion stopped
Method: (§2) Male New Zealand White rabbits were anesthetized with pentobarbital and femoral arteries were cannulated for the recording of blood pressure. Cannulae were placed in the femoral veins for the bolus injection or continuous infusion of compounds. […] Following an equilibration period the specific experimental procedure was started.
CP-0597 (0.1 μg/kg/min) was intravenously infused for the above mentioned selectivity experiments.

response to Bradykinin [5] = test: duration of action of i.v. bolus injections of CP-0597, rat blood pressure; format: in vivo
Method: as §1
At 3 μg/kg the response was ca. 50% inhibited and had returned to control by 30 minutes. At […] and 30 μg/kg the response was 100% inhibited with a 50% return to control level by 60 minutes and full recovery of response by 90 minutes.

[6] = test system: blood pressure responses to vasoactive agents; test: selectivity of intravenous CP-0597, rabbit blood pressure; format: in vivo; conditions: 0.1 μg/kg/min i.v.; for responses to the other vasoactive agents after antagonist: acetylcholine, norepinephrine, substance p, angiotensin, angiotensin II
Description: as §2

BK1 receptors = target: T2, BK1 receptors (Oryctolagus cuniculus, UniProt P48748); test: LPS-treated rabbit blood pressure BK1 ED50; format: in vivo; conditions: for BK1 ED50: LPS-treated rabbit, i.v. infusion
T2 construct: upregulation of BK1 receptors in the vascular system; from tissue; host or cells: live anesthetized LPS-pretreated New Zealand White rabbit (vascular system)
T2 sequence (P48748 1-352): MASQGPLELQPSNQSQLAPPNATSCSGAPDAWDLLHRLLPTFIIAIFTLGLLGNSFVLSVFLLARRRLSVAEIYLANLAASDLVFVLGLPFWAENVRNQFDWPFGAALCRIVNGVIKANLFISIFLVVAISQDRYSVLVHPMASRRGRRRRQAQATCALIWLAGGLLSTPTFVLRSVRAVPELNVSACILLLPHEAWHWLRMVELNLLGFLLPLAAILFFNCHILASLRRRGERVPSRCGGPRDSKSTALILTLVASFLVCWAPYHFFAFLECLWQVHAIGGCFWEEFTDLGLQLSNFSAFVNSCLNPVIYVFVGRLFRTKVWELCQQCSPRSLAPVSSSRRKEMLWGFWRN
Method: as §2
Stimulation of both pre-existing BK2 and induced BK1, receptors produces hypotension. […] Both agonists were tested in the absence and then in the presence of increasing doses of CP-0597 (1, 3, and 10 μg/kg/min).

BK2 receptors = target: T3, BK2 receptors (Oryctolagus cuniculus, UniProt Q28642); test: rabbit blood pressure BK2 ED50; format: in vivo
T3 construct: from tissue; host or cells: live anesthetized New Zealand White rabbit (vascular system)
T3 sequence (Q28642 1-367): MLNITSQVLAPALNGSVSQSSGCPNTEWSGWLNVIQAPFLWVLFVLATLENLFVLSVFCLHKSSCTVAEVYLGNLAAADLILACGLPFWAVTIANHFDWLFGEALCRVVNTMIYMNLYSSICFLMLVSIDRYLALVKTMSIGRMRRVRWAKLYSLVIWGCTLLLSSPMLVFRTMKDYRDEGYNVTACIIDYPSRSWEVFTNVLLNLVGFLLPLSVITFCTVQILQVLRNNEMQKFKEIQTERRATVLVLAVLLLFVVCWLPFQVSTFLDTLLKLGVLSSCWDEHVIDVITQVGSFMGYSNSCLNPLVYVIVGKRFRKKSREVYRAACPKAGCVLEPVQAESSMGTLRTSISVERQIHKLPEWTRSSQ
Description: as §2

guinea pig ileum = test: activity on guinea pig ileum tissue
[7] = i.v. bolus 10 μg/kg (text: 20%; Table 3: 10 μg/kg/min)
[8] = i.v. bolus 30 μg/kg (Table 3: 30 μg/kg/min)

Q: Which results are given for “D-Arg-Arg-Hyp-Hyp-Gly-Thi-Ser-D-Tic-NChg-Arg [Compound 17]”?
A: % Recovery [1]: 60%; activity in rat uterus functional tissue assay [1]: highly potent antagonists

Q: With “D-Arg-Arg-Pro-Hyp-Gly-Thi-Ser-D-Cpg-NChg-Arg [Compound 10]” as the substance, how does the “% Recovery” value [1] read?
A: 75%

Q: For “D-Arg-Arg-Pro-Hyp-Gly-Thi-Ser-D-NBng-NChg-Arg [Compound 7]”, which “B2 pA2 (Rat Uterus)” value [1] is on record?
A: Agonist

Q: What about the “activity in rat uterus functional tissue assay” value [1] of the same substance?
A: agonists

Q: With “D-Arg-Arg-Pro-Hyp-Gly-Thi-Ser-D-NBng-Oic-Arg [Compound 6]” as the substance, how does the “% Recovery” value [1] read?
A: 93%

Q: “D-Arg-Arg-Pro-Hyp-Gly-Thi-Ser-D-Phe-NChg-Arg [Compound 9]” was tested. Which “% Recovery” value [1] did it give?
A: 87%

Q: With “D-Arg-Arg-Pro-Hyp-Gly-Thi-Ser-D-Phe-NPhg-Arg [Compound 16]” as the substance, how does the “% Recovery” value [1] read?
A: 60%

Q: Which results are given for “D-Arg-Arg-Pro-Hyp-Gly-Thi-Ser-D-Tic-NChg-Arg [Compound 5]”?
A: inhibition of responses to Bradykinin, duration of action (s.c.) (response to Bradykinin [2]; 1 mg/kg s.c., 3 hours post injection): 100%; inhibition of responses to Bradykinin, duration of action (s.c.) (response to Bradykinin [2]; 3 mg/kg s.c., 5 hours post injection): 100%; blockage of agonist effect (response to Bradykinin [2]; up to 5 hours after a subcutaneous dose (3 mg/Kg, rat)): complete blockage; response to Bradykinin after antagonist [3]: antagonized; responses to the other vasoactive agents after antagonist ([3]; 1 mg/kg): not affected; responses to the other vasoactive agents after antagonist ([3]; listed as CP-0597, 1 mg/kg): unaffected; inhibition of the response to Bradykinin, duration of action (i.v. infusion) (response to Bradykinin [4]): 100%; time of return to control (100% recovery) (response to Bradykinin [5]; i.v. bolus 3 μg/kg (Table 3: 3.0 μg/kg/min)): ≤ 30 min; inhibition of response to Bradykinin (response to Bradykinin [5]; [7]): 100%; time of 50% recovery (response to Bradykinin [5]; [7]): ≤ 60 min; time of 100% recovery (response to Bradykinin [5]; [7]): ≤ 90 min; inhibition of response to Bradykinin (response to Bradykinin [5]; [8]): 100%; time of 50% recovery (response to Bradykinin [5]; [8]): ≤ 60 min; time of 100% recovery (response to Bradykinin [5]; [8]): ≤ 90 min; response to Bradykinin after antagonist [6]: antagonized; responses to the other vasoactive agents after antagonist [6]: not affected; responses to the other vasoactive agents after antagonist ([6]; listed as CP-0597): unaffected; % Recovery [1]: 71%; activity in rat uterus functional tissue assay [1]: highly potent antagonists; BK1 ED50 (BK1 receptors): 1.7 nmol/kg/min; BK1 ED50 (BK1 receptors; des-Arg9 Bradykinin, listed as CP-0597): 2.9 ± 0.92 µg/kg/min and 2.9 µg/kg/min; BK1 blocking activity in live rabbits (BK1 receptors; rabbit): 2.9 µg/kg/min; ED50 blocking bradykinin at BK2 receptors in live rabbits (BK2 receptors): 0.051 µg/kg/min; BK2 ED50 (BK2 receptors; i.v. infusion): 29.2 pmol/kg/min

Q: Which “% Recovery” value [1] does the source give for “D-Arg-Arg-Pro-Hyp-Gly-Thi-Ser-D-Tic-NCpg-Arg [Compound 8]” here?
A: 56%

Q: And the “activity in rat uterus functional tissue assay” value [1]?
A: highly potent antagonists

Q: “D-Arg-Arg-Pro-Hyp-Gly-Thi-Ser-D-Tic-NMch-Arg [Compound 12]” was tested. Which “B2 pA2 (Rat Uterus)” value [1] did it give?
A: Agonist

Q: What about the “activity in rat uterus functional tissue assay” value [1] of the same substance?
A: agonists

Q: What about the “activity on guinea pig ileum” value (guinea pig ileum) of the same substance?
A: antagonist activity

Q: For “D-Arg-Arg-Pro-Hyp-Gly-Thi-Ser-D-Tic-NPhg-Arg [Compound 15]”, which “% Recovery” value [1] is on record?
A: 54%

Q: And the “activity in rat uterus functional tissue assay” value [1]?
A: highly potent antagonists
